Results as given in PMC6259646, “Role of Intestinal Hydrolase in the Absorption of Prenylated Flavonoids Present in Yinyanghuo” (Molecules, 2011).

How the values were obtained:
[1] = tested on: rat intestine; assay: four-site single-pass perfused rat intestinal model: effective permeability and metabolite formation; assay type: in vivo; conditions: for metabolites detected in the perfusate: HPLC; for identity of intestinal metabolite: rat intestinal perfusate, LC/MS/MS, loss of saccharide group at C7
Text: Male Sprague-Dawley rats weighing between 250 and 300 g were obtained from the SLEK Lab Animal Center of Shanghai (Shanghai, China). The rats were fed with water and a standard diet. The rats were fasted overnight before the day of the experiment.
The surgical procedures were approved by the Animal Ethics Committee of Jiangsu Provincial Academy of Chinese Medicine. Anesthesia was induced by an i.m. injection of urethane (0.5 g/mL). After the rat was anesthetized, it was put over a heating blanket and under a heating lamp to keep its normal body temperature. We then cannulated four segments of the intestine, each with two cannulae. After each cannula was inserted, it was secured with a sterilized black suture before the next cannula was inserted and secured. First, the duodenum was located as the intestinal segment immediately adjacent to the stomach, and two cannulae at 10 cm apart were inserted into two ends of the duodenum and secured with suture. Next, the jejunum was located below the duodenum, and the first cannula was inserted at 4 cm below the duodenal outlet cannula, whereas the second cannula was inserted at 10 cm below the first jejunal cannula. Then, the terminal ileum was located by identifying the ileocecal junction of the rat intestine. The outlet cannula was inserted into the ileum at 2 cm above the junction, and the inlet cannula was inserted 10 cm above the outlet cannula. Lastly, the colon inlet cannula was inserted into the colon at 2 cm below the junction, and the outlet cannula was inserted through the anus. After cannulation, the small intestinal segments were placed carefully into the abdominal cavity, avoiding crimping or kinking of the segments. The incision was then covered by a normal saline-wetted paper towel. A piece of plastic wrap was put on the towel to keep the intestinal segments moist. Additionally, caution was also exercised to keep the inlet and outlet cannulate at the same height to avoid gravitational flow. To keep the temperature of the perfusate constant, the inlet cannulate was kept warm by a 37°C circulating water bath.
This is a single-pass perfusion method. Four segments of the intestine (duodenum, upper jejunum, terminal ileum, and colon) were perfused simultaneously with a perfusate containing the compound of interest using an infusion pump (Harvard Apparatus, Cambridge, MA, USA) at a flow rate of 0.2 mL/min. After a 30-min washout period, which is usually sufficient to achieve the steady-state absorption, four samples were collected from the outlet cannulae every 30 min afterward. After perfusion, the length of the intestine was measured as described previously The outlet concentrations of the test compounds in the luminal perfusate were determined by HPLC or LC/MS/MS.
The samples were separated on a Zorbax SB-C18 column (250 mm × 4.6 mm, 5 μm, Agilent). The mobile phase consisted of acetonitrile (A) and water containing 0.1% acetic acid (B). […] For MS analysis, the electro spray ionization (ESI) source was operated in the positive ion mode.
In the perfused rat intestinal model, Peff^* (effective permeability) is a representation of the intestinal membrane permeability. Peff^* of the compounds are calculated using the following equations: Peff^∗=1−Cm/Co/4Gz where Co and Cm are inlet and outlet concentrations, respectively; Gz, or Graetz number ( Gz=πDL/2Q ), is a scaling factor that incorporates flow rate (Q), intestinal length (L), and diffusion coefficients (D) to make the permeability dimensionless. Cm was adjusted for water flux, data points were discarded if the water flux exceeded 0.5%/cm of intestine.

[2] = tested on: lactase phlorizin hydrolase; assay: co-perfusion with LPH inhibitor gluconolactone in perfused rat intestinal model: inhibition of hydrolysis; assay type: in vivo; conditions: 10 μM flavonoid co-perfused with gluconolactone (40μM)
Procedure: This is a single-pass perfusion method. […] After a 30-min washout period, which is usually sufficient to achieve the steady-state absorption, four samples were collected from the outlet cannulae every 30 min afterward. After perfusion, the length of the intestine was measured as described previously The outlet concentrations of the test compounds in the luminal perfusate were determined by HPLC or LC/MS/MS. […] The total gluconolactone concentration was 40μM. After perfusion, perfusates were collected and determined by HPLC. […] The accuracy and precision were greater than 98%.

| Structure (SMILES) | metabolites detected in the perfusate [1] | hydrolysis inhibition rate, colon [2] | hydrolysis inhibition rate, duodenum [2] | hydrolysis inhibition rate, ileum [2] | hydrolysis inhibition rate, jejunum [2] | identity of intestinal metabolite [1] |
| --- | --- | --- | --- | --- | --- | --- |
| COc1ccc(-c2oc3c(CC=C(C)C)c(O)cc(O)c3c(=O)c2O[C@@H]2O[C@@H](C)[C@H](O)[C@@H](O)[C@H]2O)cc1 [baohuoside I] | no metabolites were detected |  |  |  |  |  |
| COc1ccc(-c2oc3c(CC=C(C)C)c(OC4OC(CO)C(O)C(O)C4O)cc(O)c3c(=O)c2OC2OC(C)C(O)C(O)C2OC2OC(CO)C(O)C(O)C2O)cc1 (stereo not shown) [epimedin A] | one metabolite | 14% | 55% | 21% | 26% | sagittatoside A |
| COc1ccc(-c2oc3c(CC=C(C)C)c(OC4OC(CO)C(O)C(O)C4O)cc(O)c3c(=O)c2OC2OC(C)C(O)C(O)C2OC2OCC(O)C(O)C2O)cc1 (stereo not shown) [epimedin B] | one metabolite | 22% | 42% | 74% | 40% | sagittatoside B |

More lines, now with the values ahead:

| metabolites detected in the perfusate [1] | hydrolysis inhibition rate, colon [2] | hydrolysis inhibition rate, duodenum [2] | hydrolysis inhibition rate, ileum [2] | hydrolysis inhibition rate, jejunum [2] | identity of intestinal metabolite [1] | Structure (SMILES) |
| --- | --- | --- | --- | --- | --- | --- |
| one metabolite | 35% | 42% | 52% | 40% | 2″-O-rhamnosylicariside II | COc1ccc(-c2oc3c(CC=C(C)C)c(OC4OC(CO)C(O)C(O)C4O)cc(O)c3c(=O)c2OC2OC(C)C(O)C(O)C2OC2OC(C)C(O)C(O)C2O)cc1 (stereo not shown) [epimedin C] |
| two metabolites | 46% | 62% | 40% | 50% | baohuoside I | COc1ccc(-c2oc3c(CC=C(C)C)c(O[C@@H]4O[C@H](CO)[C@@H](O)[C@H](O)[C@H]4O)cc(O)c3c(=O)c2O[C@@H]2O[C@@H](C)[C@H](O)[C@@H](O)[C@H]2O)cc1 [icariin] |
